In paper PMC6270991, “Design and Synthesis of Thiazolo[5,4-f]quinazolines as DYRK1A Inhibitors, Part I” (Molecules, 2014):
Where two headings read alike, the source gives them in different places.

Columns and labels:
[1] = target: DYRK1A (Rattus norvegicus, UniProt Q63470); experiment: DYRK1A in vitro kinase assay (33P-ATP, Woodtide substrate); assay type: biochemical
Method: (§1) Buffer A: MgCl2 (10 mM), 1 mM ethylene glycol-bis(2-aminoethylether)-N,N,N',N'-tetraacetic acid (EGTA), 1 mM dithiothreitol (DTT), 25 mM Tris-HCl pH 7.5, 50 μg heparin/mL.
(§2) Controls were performed with appropriate dilutions of dimethylsulfoxide (DMSO). IC50 values were calculated from dose-response curves established by Sigma-Plots. The GSK-3, CK1, DYRK1A and CLK1 peptide substrates were obtained from Proteogenix (Oberhausbergen, France).
(§3) CDK5/p25. (Human, recombinant) was prepared as previously described. […] ATP (3000 Ci/mmol; 10 mCi/mL) in a final volume of 30 μL. After 30 min incubation at 30 °C, 25 μL aliquots of supernatant were spotted onto sheets of Whatman P81 phosphocellulose paper, and 20 s later, the filters were washed eight times (for at least 5 min each time) in a solution of 10 mL phosphoric acid/L of water. The wet filters were counted in the presence of 1 mL ACS (Amersham) scintillation fluid.

[2] = target: T1, CDK5/p25 (Homo sapiens, UniProt Q00535); experiment: CDK5/p25 in vitro kinase assay (33P-ATP, histone H1); assay type: biochemical; conditions: read-out: CDK5 IC50
T1 construct: made in house
T1 sequence (Q00535 whole entry): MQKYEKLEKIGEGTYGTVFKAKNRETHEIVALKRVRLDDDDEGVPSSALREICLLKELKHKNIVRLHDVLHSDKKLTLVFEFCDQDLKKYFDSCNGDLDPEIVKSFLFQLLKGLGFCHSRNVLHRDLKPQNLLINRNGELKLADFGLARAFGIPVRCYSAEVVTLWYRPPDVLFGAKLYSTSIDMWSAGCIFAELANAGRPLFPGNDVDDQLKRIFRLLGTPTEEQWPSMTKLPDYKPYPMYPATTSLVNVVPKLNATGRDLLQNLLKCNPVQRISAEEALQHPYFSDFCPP
T1 sequence (Q15078 99-307 partner limits assumed): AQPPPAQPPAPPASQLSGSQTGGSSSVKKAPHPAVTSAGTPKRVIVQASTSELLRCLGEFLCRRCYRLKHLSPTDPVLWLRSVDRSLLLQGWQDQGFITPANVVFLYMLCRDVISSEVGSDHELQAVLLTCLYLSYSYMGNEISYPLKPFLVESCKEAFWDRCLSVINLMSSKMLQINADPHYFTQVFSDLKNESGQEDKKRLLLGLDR
Method: as §1, §2, §3

[3] = target: GSK-3α/β; experiment: GSK-3α/β in vitro kinase assay (33P-ATP, GS-1 peptide); assay type: biochemical, Porcine; conditions: 15 μM ATP, 30 min at 30 °C, triplicate; <50% inhibition at 10 µM reported as >10; read-out: GSK3 IC50
Method: as §1, §2, §3
GSK-3α/β. (Porcine brain, native) was assayed as described for CDK5/p25, but in buffer A and using a GSK-3 specific substrate (GS-1: […]pSEDEEE) (pS stands for phosphorylated serine).

[4] = target: CK1δ/ε; experiment: CK1δ/ε in vitro kinase assay (33P-ATP, CK1-specific peptide substrate); assay type: biochemical, Porcine; conditions: 15 μM ATP, 30 min at 30 °C, triplicate; <50% inhibition at 10 µM reported as >10
Method: as §2, §3
CK1δ/ε. (Porcine brain, native) was assayed as described for CDK5/p25, but using the CK1-specific peptide substrate […]pSAYSITA [23].

[5] = 15 μM ATP, 30 min at 30 °C, triplicate, <50% inhibition at 10 µM reported as >10

IC50 [1] [µM]	IC50 [2] [µM]	melting point [°C]	IC50 [3] [µM]	IC50 [4] [µM]	Structure (SMILES)	IC50 [1, 5] [µM]	IC50 [2, 5] [µM]
> 10	> 10	> 260	> 10	> 10	COc1ccc(Nc2ncnc3ccc4nc(C#N)sc4c23)cc1 [Compound 7, 9-(4-Methoxyphenylamino)thiazolo[5,4-f]quinazoline-2-carbonitrile]		
> 10	> 10	> 260	> 10	> 10	N#Cc1nc2ccc3ncnc(Nc4ccc5c(c4)OCO5)c3c2s1 [Compound 8, 9-(Benzo[d][1,3]dioxol-5-ylamino)thiazolo[5,4-f]quinazoline-2-carbonitrile]		
> 10	> 10	> 260	> 10	> 10	N#Cc1nc2ccc3ncnc(Nc4ccc(Br)cc4F)c3c2s1 [Compound 9, 9-(4-Bromo-2-fluorophenylamino)thiazolo[5,4-f]quinazoline-2-carbonitrile]		
> 10	> 10		1.8	> 10	N=C(NCc1ccccc1)c1nc2ccc3ncnc(Nc4ccc(Br)cc4F)c3c2s1 [Compound 9f, N-Benzyl-9-(4-bromo-2-fluorophenylamino)thiazolo[5,4-f]quinazoline-2-carboximidamide]		
0.67	> 10		0.13	> 10	NC(=O)c1nc2ccc3ncnc(Nc4ccc(Br)cc4F)c3c2s1 [Compound 9h, 9-(4-Bromo-2-fluorophenylamino)thiazolo[5,4-f]quinazoline-2-carboxamide]		
> 10	> 10	252	> 10	> 10	N#Cc1nc2ccc3ncnc(Nc4ccc(F)c(Cl)c4)c3c2s1 [Compound 10, 9-(3-Chloro-4-fluorophenylamino)thiazolo[5,4-f]quinazoline-2-carbonitrile]		
			3.5	> 10	N=C(NCCN1CCOCC1)c1nc2ccc3ncnc(Nc4ccc(F)c(Cl)c4)c3c2s1 [Compound 10a, 9-(3-Chloro-4-fluorophenylamino)-N-(2-morpholinoethyl)thiazolo[5,4-f]quinazoline-2-carboximid-amide]	> 10	> 10
> 10	> 10		> 10	> 10	N=C(NCc1ccccc1)c1nc2ccc3ncnc(Nc4ccc(F)c(Cl)c4)c3c2s1 [Compound 10f, N-Benzyl-9-(3-chloro-4-fluorophenylamino)thiazolo[5,4-f]quinazoline-2-carboximidamide]		
6.5	> 10		7.2	> 10	CN(C)C(=N)c1nc2ccc3ncnc(Nc4ccc(F)c(Cl)c4)c3c2s1 [Compound 10g, 9-(3-Chloro-4-fluorophenylamino)-N,N-dimethylthiazolo[5,4-f]quinazoline-2-carboximidamide]		

Structure (SMILES)	IC50 [1] [µM]	IC50 [2] [µM]	melting point [°C]	IC50 [3] [µM]	IC50 [4] [µM]	IC50 [1, 5] [µM]	IC50 [2, 5] [µM]
CCN(CC)CCNC(=N)c1nc2ccc3ncnc(Nc4ccc(Br)cc4F)c3c2s1 [Compound 9e, 9-(4-Bromo-2-fluorophenylamino)-N-(2-(diethylamino)ethyl)thiazolo[5,4-f]quinazoline-2-carboxi-midamide]				2.1	> 10	> 10	> 10
CN(C)C(=N)c1nc2ccc3ncnc(Nc4ccc(Br)cc4F)c3c2s1 [Compound 9g]				0.6	> 10	0.27	> 10
N=C(NCCN1CCCCC1)c1nc2ccc3ncnc(Nc4ccc(F)c(Cl)c4)c3c2s1 [Compound 10b, 9-(3-Chloro-4-fluorophenylamino)-N-(2-(piperidin-1-yl)ethyl)thiazolo[5,4-f]quinazoline-2-carboxi-midamide]				1.4	> 10	> 10	> 10
N=C(NCCN1CCCC1)c1nc2ccc3ncnc(Nc4ccc(F)c(Cl)c4)c3c2s1 [Compound 10c, 9-(3-Chloro-4-fluorophenylamino)-N-(2-(pyrrolidin-1-yl)ethyl)thiazolo[5,4-f]quinazoline-2-carboxi-midamide]				2.5	> 10	> 10	> 10
CN(C)CCNC(=N)c1nc2ccc3ncnc(Nc4ccc(F)c(Cl)c4)c3c2s1 [Compound 10d, 9-(3-Chloro-4-fluorophenylamino)-N-(2-(dimethylamino)ethyl)thiazolo[5,4-f]quinazoline-2-carboxi-midamide]				3	> 10	> 10	> 10
CCN(CC)CCNC(=N)c1nc2ccc3ncnc(Nc4ccc(F)c(Cl)c4)c3c2s1 [Compound 10e, 9-(3-Chloro-4-fluorophenylamino)-N-(2-(diethylamino)ethyl)thiazolo[5,4-f]quinazoline-2-carboxi-midamide]				7	> 10	> 10	> 10
